The results in this text go back to paper PMC12652113, “Fluorescent Albumin-Binding N-Propylbenzene Indolenine-Based Squaraines as Potential Candidates for Prostate Cancer Photodynamic Therapy Photosensitizers” (International Journal of Molecular Sciences, 2025).

Entries after “also recorded” stand apart in the source; their conditions may differ.

Data set [1] can be described thus: Singlet oxygen generation, 1,3-diphenylisobenzofuran (DPBF) assay. The following applies: DMSO; LED irradiation; relative to benzoselenazole squaraine reference. The data set is classed as physicochemical. The procedure: The ability of the squaraine dyes to generate singlet oxygen was assessed using the 1,3-diphenylisobenzofuran (DPBF) assay. In this method, squaraine solutions were incubated with DPBF and irradiated for different time intervals, followed by the monitoring of absorbance at 410 nm. A progressive decrease in DPBF absorbance was observed upon irradiation for all synthesized compounds, confirming their ability to produce this reactive oxygen species. However, it should be emphasized that the reference squaraine dye induced a sharp reduction in DPBF absorbance within a short irradiation period, with the decay being limited only by its intrinsic photoinstability.
Singlet oxygen production was assessed by monitoring the bleaching of 1,3-diphenylisobenzofuran (DPBF) at 410 nm. Fresh solutions of squaraine dyes (20 µM) and DPBF (0.1 mM) were introduced into 96-well plates, and decreases in absorbance were recorded before and after irradiation at defined time intervals. Quantum yields of singlet oxygen generation (ΦΔ) were determined by comparing the slopes of DPBF degradation for the squaraine dyes [S(dye)] with those of a benzoselenazole squaraine reference dye [S(ref), ΦΔ = 0.10], according to established linear regression procedures (Equation (1)). In parallel, photodegradation of the squaraines was monitored by following changes in their absorbance over time, with normalization applied to enable direct comparison across samples.(1) ΦΔdye=ΦΔref × Sdye/Sref

The subject of data set [2] is normal human dermal fibroblasts (NHDF). The data set is described as follows: MTT dark and light-induced cytotoxicity in NHDF. The following applies: for IC50: Homo sapiens, 24 h incubation; for IC50 / Photodynamic ratio (PTR): NHDF; for Photodynamic ratio (PTR): IC50 dark/IC50 irradiated. The data set is classed as cell-based. As to the method:
(§1) For potential applicability as photosensitizers in PDT, these candidates are expected to display cytotoxic effects only after photoactivation, namely, and preferably restricted to target tissue cells, without inducing damage to healthy counterparts. To evaluate this, prostate adenocarcinoma PC-3 cells and non-tumoral NHDF fibroblasts were incubated with increasing concentrations of the squaraine dyes for 24 h. Subsequently, the cells were irradiated using an LED system centered at 663 nm, a wavelength close to the absorption maximum of the monomeric dye forms. Twenty-four hours post-irradiation, cellular metabolic activity was assessed by the MTT assay.
(§2) The in cell photocytotoxicity of the squaraine dyes was assessed using the MTT assay. When cells reached 90–95% confluence, they were trypsinized using a trypsin-EDTA solution (0.125 g/L trypsin, 0.02 g/L EDTA), counted via trypan-blue exclusion in a Neubauer chamber, and diluted to 2 × 10^4 cells/mL. A 100 µL aliquot of this suspension was seeded into each well of 96-well plates and incubated for 48 h to allow for cell attachment and resumption of proliferation.
(§3) After this period, the medium was removed, and cells were treated with various concentrations of the squaraine dyes (0.01, 0.1, 1, 2.5, 5, and 10 µM) in the appropriate culture medium. […] Negative controls consisted of cells exposed only to culture medium. All experiments were performed in quadruplicate and independently repeated.
(§4) After 24 h of exposure to the dyes, the cells were subjected to two different irradiation conditions: the first group was not irradiated and was protected from ambient light for 21 min, and the second group was irradiated for 7 min.
(§5) Twenty-four hours post-irradiation, the culture medium was removed, cells were washed with 100 µL PBS, and 100 µL of MTT solution (5 mg/mL in serum- and antibiotic-free medium) was added per well. Cells were incubated for 4 h at 37 °C, after which the supernatant was discarded, and the formazan crystals were solubilized in dimethyl sulfoxide. Absorbance was measured at 570 nm using a Bio-Rad xMark microplate reader.
(§6) Cell viability was expressed as the percentage of absorbance in treated samples relative to the untreated negative control. Data were statistically analyzed by ordinary two-way ANOVA followed by the Šidák multiple comparisons test, comparing irradiated and non-irradiated conditions at the same concentration, with differences considered statistically significant at a p-value < 0.05. Half-maximal inhibitory concentration values reported in this work were obtained by fitting the data to a sigmoidal model with a 95% confidence interval. All assays were performed in quadruplicate and replicated independently at least twice. Phototoxicity and tumor selectivity ratios were quantified according to Equations (6) and (7):(6) PTR = IC50 dark condition/IC50 irradiated condition (7) TSR = IC50 for NHDF cells under irradiated condition/IC50 for cancer cell line under irradiated condition
(§7) Irradiation was performed using a light-emitting diode array centered at 663 ± 8 nm to match the absorption maximum of the dyes. The LED (Roithner; 8.3 mW radiant flux) was integrated into flat-bottom 96-well plates and powered by a regulated current source. The irradiance was 15.8 mW/cm^2, and the total energy delivered per well was 3.49 J after 7 min, ensuring precise light dosing for all experiments.

The test system of data set [3] is prostate adenocarcinoma (PC-3) cell line. The data set is described as follows: MTT dark and light-induced cytotoxicity in PC-3. The data set is classed as cell-based, human. The following applies: for IC50: Homo sapiens, 24 h incubation; for tumor selectivity ratio (TSR): IC50 NHDF irradiated/IC50 PC-3 irradiated; for Photodynamic ratio (PTR): PC-3, IC50 dark/IC50 irradiated. As to the method:
as §1, §2, §3, §4, §5, §6, §7

A short description of data set [4]: Aggregation behavior (Vis absorption in phosphate buffer, with or without Triton X-100). It is filed as physicochemical. The following applies: phosphate buffer vs DMSO. The procedure:
Squaraine dyes were dissolved in dimethyl sulfoxide, whereas zinc phthalocyanine required dimethylformamide as a solvent. All stock solutions were prepared at 0.67 mM concentration and stored in the dark at 4 °C until further use. For spectroscopic characterization, 1.0 µM stock solutions of the squaraine dyes in dimethyl sulfoxide were serially diluted into a series of solvents (chloroform, dimethyl sulfoxide, methanol, and phosphate buffer) to obtain at least five defined concentrations. The absorption spectra of these dilutions were recorded and used to calculate molar extinction coefficients according to the Beer–Lambert law. Additional working solutions at a 1.0 µM concentration were prepared in dimethyl sulfoxide and buffer, and 1.0% Triton X-100 was added where required to investigate dye aggregation.

Setting [5] is: light or radiation study, Light, 7 min LED 663 nm, MTT 24 h post-irradiation.
Where [6] appears, read: light or radiation study, PC-3, Light, 7 min LED 663 nm, MTT 24 h post-irradiation.

As a reminder, the IC50 is the point on the concentration scale where inhibition reaches its midpoint.

In the case of `CC1(C)C(=CC2=C([O-])C(=CC3=[N+](CCCc4ccccc4)c4ccccc4C3(C)C)C2=O)N(CCCc2ccccc2)c2ccccc21` [Dye 5, 4-[3,3-Dimethyl-1-(3-phenylpropyl)-indol-1-ium-2-ylmethylene]-2-[3,3-dimethyl-1-(3-phenylpropyl)indolin-2-ylidenemethyl]-3-oxocyclobut-1-en-1-olate], the “singlet oxygen quantum yield (ΦΔ)” value in data set [1] is given as less than 0.01. Moreover, the half-inhibitory concentration (IC50) in data set [2] (setting [5]) is 7.41 µM; in data set [2] (Dark, MTT 24 h later) it was more than 10 µM; in data set [3] (setting [6]), 898 nM; in data set [3] (PC-3, Dark, MTT 24 h later), more than 10000 nM. Also, the “Photodynamic ratio (PTR)” value in data set [2] is listed as more than 1.4. The reduction in viability in data set [2] (normal fibroblasts, irradiated, up to 2.5 μM) was not above 30%; in data set [3] (PC-3 cells, irradiated, 1.0 μM), “approximately 60%”. Moreover, the aggregation behavior entry in data set [4] was “coexistence of H- and J-type aggregates”.

With `CC1(C)C(=CC2=C(NCc3ccc4ccc5cccc6ccc3c4c56)C(=CC3=[N+](CCCc4ccccc4)c4ccccc4C3(C)C)C2=O)N(CCCc2ccccc2)c2ccccc21.[I-]` [Dye 14, 2-({3-[3,3-dimethyl-1-(3-phenylpropyl)indolin-2-ylidenemethyl]-4-oxo-2-[(pyren-1-ylmethyl)amino]cyclobut-2-en-1-ylidene}methyl)-3,3-dimethyl-1-(3-phenylpropyl)-indol-1-ium Iodide], the “singlet oxygen quantum yield (ΦΔ)” value in data set [1] is less than 0.01. The IC50 in data set [2] (setting [5]) was more than 10 µM; in data set [2] (Dark, MTT 24 h later), more than 10 µM; in data set [3] (setting [6]), more than 10000 nM; in data set [3] (PC-3, Dark, MTT 24 h later), more than 10000 nM. In addition, the aggregation behavior entry in data set [4] is “predominantly form J-aggregates”.

For the compound `CC1(C)C(=CC2=C(N)C(=CC3=[N+](CCCc4ccccc4)c4ccccc4C3(C)C)C2=O)N(CCCc2ccccc2)c2ccccc21.[I-]` [Dye 9, 2-{2-Amino-3-[3,3-dimethyl-1-(3-phenylpropyl)indolin-2-ylidenemethyl]-4-oxocyclobut-2-en-1-ylidenemethyl}-3,3-dimethyl-1-(3-phenylpropyl)-indol-1-ium Iodide], in data set [1], the “singlet oxygen quantum yield (ΦΔ)” value was less than 0.01. Besides, the IC50 in data set [2] (setting [5]) is 3.79 µM; in data set [2] (Dark, MTT 24 h later), 6.8 µM; in data set [3] (setting [6]), 93 nM; in data set [3] (PC-3, Dark, MTT 24 h later), 1210 nM. Also, the “Photodynamic ratio (PTR)” value in data set [2] is listed as 1.8; in data set [3], 13. The “tumor selectivity ratio (TSR)” value in data set [3] was 40.8. Moreover, the aggregation behavior entry in data set [4] was “coexistence of H- and J-type aggregates”.

Regarding `CNC1=C(C=C2N(CCCc3ccccc3)c3ccccc3C2(C)C)C(=O)C1=CC1=[N+](CCCc2ccccc2)c2ccccc2C1(C)C.[I-]` [Dye 11, 2-{3-[3,3-Dimethyl-1-(3-phenylpropyl)indolin-2-ylidenemethyl]-2-(methylamino)-4-oxocyclobut-2-en-1-ylidenemethyl}-3,3-dimethyl-1-(3-phenylpropyl)-indol-1-ium Iodide], the “singlet oxygen quantum yield (ΦΔ)” value in data set [1] is given as less than 0.01. For the same compound, the IC50 in data set [2] (setting [5]) stood at 3.24 µM; in data set [2] (Dark, MTT 24 h later) it was 6.57 µM; in data set [3] (setting [6]), 90 nM; in data set [3] (PC-3, Dark, MTT 24 h later) it was 1440 nM. The “Photodynamic ratio (PTR)” value is 2.0 in data set [2] and 16 in data set [3]. Also, the “tumor selectivity ratio (TSR)” value in data set [3] is 36.0. In addition, the aggregation behavior result in data set [4] is “coexistence of H- and J-type aggregates; also recorded: lowest tendency to aggregate”.
